The term solubility denotes the dissolved amount per volume that the medium holds.

These results are taken from US4169015A, “Novel chromogenic thrombin substrates” (AB Kabi, priority 1975, dated 1979).

Series [1] deals with thrombin. Description: Relative reaction velocity between thrombin and chromogenic substrate (p-nitroaniline release, 405 nm). The series is classed as biochemical. Conditions: for Rel. reaction velocity: thrombin 0.4 NIH/ml, substrate 0.1 μmol/ml, relative, S-2160 = 100. From the text: The substrates prepared according to the examples are used for determination of thrombin as stated below.
The determination principle is based upon the fact that the splitting product formed by enzymatic hydrolysis has a UV-spectrum which is essentially different from that of the substrate. Thus, the substrate according to Example X, H--D--Phe--Pip--Arg--pNA, has an absorption maximum at 315 nm and the molar extinction coefficient of 12500. At 405 nm the absorption of the substrate has almost completely stopped. p-Nitroaniline, split off from the substrate during the enzymatic hydrolysis, has an absorption maximum at 380 nm and a molar extinction coefficient of 13200 which at 405 nm only had decreased to 9620. By spectrophotometrical determination at 405 nm it is thus possible to easily follow the amount of p-nitroaniline formed, which is proportional to the degree of the enzymatic hydrolysis which in its turn is determined by the active amount of thrombin. For other substrates according to the invention rather identical conditions exist and for this reason the determinations have consistently been made at 405 nm.
They react 4 times more rapidly with thrombin than the previously best substrate, S-2160, and are further about 10 times more soluble in water than S-2160.
Relative reactions velocity between thrombin (0.4 NIH/ml) and substrate (0.1 μmol/ml).

The nature of series [2]: Solubility in water. The series is classed as physicochemical.
Where [3] appears, read: water, Table I, in H2O, read-out: Solubility in H2O.

In brackets after ≈: the same amount, converted by molar mass. Read-outs that look alike come from different tables or passages of the source. Where a SMILES comes first, the peptide text is derived from it. The star is where a group is joined. pNA = O=[N+]([O-])c1ccc(N*)cc1; Bz = O=C(c1ccccc1)*

Compound `N=C(N)NCCC[C@H](NC(=O)[C@@H]1CCCN1C(=O)[C@@H](N)Cc1ccccc1)C(=O)Nc1ccc([N+](=O)[O-])cc1` [IX, H--Phe--Pro--Arg--pNA.2HCl] gave a Rel. reaction velocity in series [1] of 15. For the same compound, the solubility in series [2] (setting [3]) was found to be 1000 µg/mL.

In the case of `N=C(N)NCCC[C@H](NC(=O)[C@@H]1CCCCN1C(=O)[C@H](N)Cc1ccccc1)C(=O)Nc1ccc([N+](=O)[O-])cc1` [Example X, H--D--Phe--Pip--Arg--pNA.2HCl], the Rel. reaction velocity in series [1] was determined as 420. In addition, the solubility in series [2] (setting [3]) was determined as 3000 µg/mL.

Regarding `CC(C)[C@H](NC(=O)[C@@H](N)Cc1ccccc1)C(=O)N[C@@H](CCCNC(=N)N)C(=O)Nc1ccc([N+](=O)[O-])cc1` [B, H-Phe-Val-Arg-pNA, reference compound] (H-Phe-Val-Arg-pNA), the Rel. reaction velocity in series [1] turned out to be 3. Besides, the “decrease of the velocity with which thrombin splits the substrate” value in series [1] (versus S-2160 (benzoyl replaced with H)) was “about 30 times”. The solubility in series [2] (setting [3]) was found to be 1000 µg/mL (≈ 1850 µM).

The compound `N=C(N)NCCC[C@H](NC(=O)[C@@H]1CCCCN1C(=O)[C@@H](N)Cc1ccccc1)C(=O)Nc1ccc([N+](=O)[O-])cc1` [XI, H--Phe--Pip--Arg--pNA.2HCl] displayed a Rel. reaction velocity in series [1] of 9. For the same compound, the solubility in series [2] (setting [3]) was 1000 µg/mL.

Consider `N=C(N)NCCC[C@H](NC(=O)[C@@H]1CCCN1C(=O)[C@H](N)Cc1ccccc1)C(=O)Nc1ccc([N+](=O)[O-])cc1` [VIII, H--D--Phe--Pro--Arg--pNA.2HCl], for which the Rel. reaction velocity in series [1] was found to be 400. Further, the solubility in series [2] (setting [3]) was 3000 µg/mL.

Take `CC(C)[C@H](NC(=O)[C@H](Cc1ccccc1)NC(=O)c1ccccc1)C(=O)N[C@@H](CCCNC(=N)N)C(=O)Nc1ccc([N+](=O)[O-])cc1` [Example S-2160, Bz-Phe-Val-Arg-pNA, reference compound] (Bz-Phe-Val-Arg-pNA): in series [1], the Rel. reaction velocity was 100. Besides, the solubility in series [2] (medium not stated, read-out: solubility) amounted to 1000 µg/mL (≈ 1550 µM); in series [2] (setting [3]), 100 µg/mL (≈ 155 µM). Also, in series [2] (versus S-2160), the “solubility compared with S-2160 (in words)” value is “considerably more soluble”.
